What all share (type): cell-based
The target in assay [1] is T1, TRPML1 (Homo sapiens, UniProt Q9GZU1).
T1 construct: expressed in transfected cells
The experiment in a line: Cellular TRPML1 assay (FLIPR TETRA, GCaMP6f calcium read-out). To be noted: HEK T-REx/GCaMP6f/TRPML1 cells; Ca2+ response over 300 s, normalized to ML-SA1 50 μM; Ca2+ free or Optimem condition not given; read-out: Ec50 (Activity of TRPML1 agonists). Summed up:
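HEK T-REx cells stably expressing TRPML1 and GCaMP6f, assayed 24 h after seeding in Ca2+-free Tyrode's (pH 7.4) or Opti-MEM. Compounds injected on FLIPR Tetra (0.5% DMSO) in dose-response from 100 μM (1:2) or 50 μM (1:3.16); fluorescence kinetics 300 s, referenced to 50 μM ML-SA1 stimulator control.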

Assay [2] has as its system autophagy reporter Rosella (LC3 tag) in HeK293 cell line. The experiment in a line: Autophagy assay (reporter Rosella, imaging). To be noted: HeK293 cells stably expressing reporter Rosella, 18 hours incubation, reference Torin-1 1 μM as max signal, read-out: Secondary Assays Autophagy qAC50. On the procedure:
Buffers and Reagents • Tyrode's buffer with 2 mM Ca^2+ in-house solution (130 mM NaCl, 5 mM KCl, 2 mM CaCl2), 1 mM MgCl2, 5 mM NaHCO3, 20 mM HEPES in water at pH 7.4; sterile filtered) • DMSO (Sigma) • Bis-benzimide H 33342 trihydrochloride (Hoechst 33342; Sigma-Aldrich) • Reference molecule (agonist): Torin-1, (#4247, Tocris) stock 1.2 mM in DMSO, stored at −20° C.
Reporter of Autophagy and Cell Line
Reporter Rosella: a fluorescent-based chimera constitutes by two fluorescent proteins, Green and Red variants, acting as a bimodal indicator of pH. […] The reporter is fused to sequence for autophagosome localization (LC3 tag).
The reporter Rosella have been stably expressed in HeK293 cell line and used as read-out.
Experiments have been performed in 384 MTP poly-lysine coated well format. Cells have been seeded in 384-w at a density of 6000 cells/well in 25 μl/well complete growth medium without antibiotics. Twenty-four hours later, cells have been treated with compounds and incubated for further 18 hours. Then the cells have been imaged and assayed for the response to various compounds using the reporter for autophagy expressed in the cells as readout.
The experiments were performed in a 384-well format according to the following procedure: • 24 h after seeding, cells were incubated with compounds at the desired concentration, and with the reference molecule (agonist) Torin-1 at a top concentration of 1 μM (max signal), for 18 hours at 37° C. and 5% CO2. The final percentage of DMSO was 0.3% in all the conditions. • Then the culture medium was carefully removed to avoid cells detachment and to discard red phenol into the medium and that can interfere with the measurements. • Staining of the nuclei was obtained by incubating the cells with 8 μM/well of Hoechst 3342 in standard Tyrode's buffer for 20 min at RT • Then the cells were carefully washed two times with standard Tyrode's buffer • Finally, the samples were acquired by recording three fluorescence emission channels (green, red and blue) at 20× magnification and with at least 3-4 fields of view per well in an Operetta CLS microscope (PerkinElmer). • Image analysis was performed by using Harmony software (PerkinElmer). The image analysis involved the following steps: flat-field illumination correction, nuclei segmentation, cell segmentations and identification of vesicles/granules within the cytosol compartments and representing the autophagy vesicles. Measurements of signal intensity ratio (Green to Red) and number of autophagy vesicles per cells were used to obtain information on the effects of compounds on the autophagy flux. • Data from image analysis measurements were finally loaded and analyzed for normalization and fitting procedures in Genedata Screener© software.

Assay [3] addresses T1, TRPML1. The experiment in a line: TRPML1 automated patch-clamp (QPatch 16X). To be noted: HEK T-REx/GcaMP6f/TRPML1 cells, current with compound/current in vehicle, extracellular pH 4.6. The protocol: TRPML1—Automated Patch-Clamp
HEK T-REx/GcaMP6f/TRPML1 cells were cultured in DMEM High Glucose (Lonza BioWhittaker cat. BE12-604F/U1; 500 mL) supplemented with Fetal Bovine Serum TET-FREE (Euroclone cat. EC S0182L; 50 mL, Penicillin-Streptomycin (BioWhittaker, cat. DE17-602E; 5 mL of 100× Solution), G418 (Sigma, cat. G8168; 0.25 mg/ml) and Zeocyn (InvivoGen, cat. ant-zn-1; 50 μg/ml).
HEK T-REx/GcaMP6f/TRPML1 cells were seeded 48 or 72 hours before experiment, at a concentration of 8*10^6/4*10^6 cells onto a T225 flask. Just before the experiments, cells were washed twice with D-PBS w/o Ca^2+/Mg^2+ (Euroclone cat. ECB4004L) and detached from the flask with trypsin-EDTA (Sigma cat. T4174; diluted 1/10). Cells were then re-suspended in the suspension solution: 25 mL EX-CELL ACF CHO medium(Sigma cat. C5467); 0.625 mL HEPES (Sigma cat. H0887); 0.25 mL of 100× Penicillin/Streptomycin (Euroclone cat. ECB3001D), 0.1 mL of Soybean Trypsin Inhibitor 10 mg/mL (Sigma cat. T6522) and placed on the QPatch 16X.
Dilution from stock were prepared just before the experiments in the extracellular solution (0.25% final DMSO concentration). DMSO solution was obtained from AppliChem (cat. A3672)
Patch Clamp Solutions: • Intracellular solution (mM): 120 CsMeSO3, 4 NaCl, 2 MgCl2, 10 EGTA, 20 HEPES, 2 Mg-ATP (pH 7.2 with CsOH). • Extracellular solution (mM): 140 NaGluconate, 5 KCl, 1 MgCl2, 2 CaCl2), 10 Glucose, 10 MES (pH 4.6 with HCl).
Patch Clamp Analysis—QPatch 16X
For the voltage clamp experiments on TRPML1, data were sampled at 5 KHz. After establishment of the seal and the passage in the whole cell configuration, the cells were held at −20 mV and the TRPML1 current was evoked using the voltage protocol illustrated in FIG. 2, applied every 5 sec. (50 ms at −20 mV; 20 ms at −120 mV, 1000 ms ramp from −120 to […]; 20 ms at +40 mV, and back to −20 mV); in the absence (vehicle period, i.e. 0.25% DMSO) and in the presence of increasing concentrations (3) of the compound under investigation.
Agonists: For data collection, the Sophion proprietary software was used and the analysis was performed off-line using Excel and GraphPad Prism (V 8.00). Results are reported in Table 6, expressed as TRPML1 current fold increase evoked by the compound under investigation (i.e. current in the presence of the compound/current in vehicle).
(In general: In patch-clamp work, channel activity is measured electrically.)

Structures are written as SMILES. Read-outs that look alike come from different tables or passages of the source.

The values that follow come from US20230010299A1, “HETEROCYCLIC TRPML1 AGONISTS” (LIBRA THERAPEUTICS, INC., priority 2019, published 2023).

T1 sequence (Q9GZU1 whole entry): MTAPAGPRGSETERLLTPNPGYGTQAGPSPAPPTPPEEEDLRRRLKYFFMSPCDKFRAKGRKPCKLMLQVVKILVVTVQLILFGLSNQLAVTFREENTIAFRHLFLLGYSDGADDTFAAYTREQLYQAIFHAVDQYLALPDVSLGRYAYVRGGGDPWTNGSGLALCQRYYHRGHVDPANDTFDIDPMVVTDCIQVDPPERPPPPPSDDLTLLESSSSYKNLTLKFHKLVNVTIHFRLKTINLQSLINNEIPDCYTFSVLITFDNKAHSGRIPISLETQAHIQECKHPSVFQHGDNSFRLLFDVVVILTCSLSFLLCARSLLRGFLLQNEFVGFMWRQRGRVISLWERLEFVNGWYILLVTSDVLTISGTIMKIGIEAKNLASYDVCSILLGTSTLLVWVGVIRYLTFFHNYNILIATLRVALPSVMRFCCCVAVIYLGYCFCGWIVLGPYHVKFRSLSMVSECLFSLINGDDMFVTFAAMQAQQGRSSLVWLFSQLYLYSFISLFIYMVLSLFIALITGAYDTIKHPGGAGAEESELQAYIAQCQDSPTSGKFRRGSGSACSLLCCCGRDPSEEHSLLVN

Consider `COC1CCCN(c2ccccc2NS(=O)(=O)c2ccc(S(=O)(=O)N(C)C)cc2)CC1` (racemic) [Example 40, N1-(2-(4-methoxyazepan-1-yl)phenyl)-N4,N4-dimethylbenzene-1,4-disulfonamide], for which the values for the EC50 (on TRPML1 [1]; in assay [2] (Homo sapiens)) were 3 µM and 1.3 µM, respectively.
`CCc1ccc(S(=O)(=O)Nc2ccccc2N2CCC(C(=O)OC(C)(C)C)CC2)cc1` [Example 19, tert-butyl 1-(2-((4-ethylphenyl)sulfonamido)phenyl)piperidine-4-carboxylate]: the EC50 at TRPML1 [1] came to 2.1 µM; in assay [2] (Homo sapiens) it was 0.6 µM.
In the case of `CCN(C(=O)c1ccc(S(=O)(=O)N(C)C)cc1)c1ccccc1N1CCN(C(=O)OC(C)(C)C)CC1` [Example 20, tert-butyl 4-(2-(4-(N,N-dimethylsulfamoyl)-N-ethylbenzamido)phenyl)piperazine-1-carboxylate], the EC50 at TRPML1 [1] was found to be 3.4 µM; in assay [2] (Homo sapiens), 0.46 µM.
For `CN(C)S(=O)(=O)c1ccc(S(=O)(=O)Nc2ccccc2N2CCC(F)(F)CC2)cc1` [Example 33, N4-[2-(4,4-difluoropiperidin-1-yl)phenyl]-N1,N1-dimethylbenzene-1,4-disulfonamide], in that order: 10.8 µM and 1.3 µM.
For the molecule `CC(C)N(C(=O)c1ccc(S(=O)(=O)N(C)C)cc1)c1ccccc1N1CCN(C(=O)OC(C)(C)C)CC1` [Example 46, tert-butyl 4-(2-(4-(N,N-dimethylsulfamoyl)-N-isopropylbenzamido)phenyl)piperazine-1-carboxylate], the values for the EC50 (on TRPML1 [1]; in assay [2] (Homo sapiens)) were 9.4 µM and 1.3 µM, respectively.
Turning to `Cc1cc(S(=O)(=O)Nc2ccccc2N2CCN(C(=O)OC(C)(C)C)CC2)c(C)o1` [Example 58, tert-butyl 4-(2-((2,5-dimethylfuran)-3-sulfonamido)phenyl)piperazine-1-carboxylate], the EC50 on TRPML1 [1] is 2.3 µM; in assay [2] (Homo sapiens), 22.4 µM.
`Cc1ccc(S(=O)(=O)Nc2ccccc2N2CCC(Oc3ccccn3)CC2)c(C)c1` [Example 65, 2,4-dimethyl-N-(2-(4-(pyridin-2-yloxy)piperidin-1-yl)phenyl)benzenesulfonamide]: the values for the EC50 (on TRPML1 [1]; in assay [2] (Homo sapiens)) were 3.5 µM and 31.4 µM, respectively.
`CCCOC1CCN(c2ccccc2NS(=O)(=O)c2cc(C)sc2C)CC1` [Example 68, 2,5-dimethyl-N-(2-(4-propoxypiperidin-1-yl)phenyl)thiophene-3-sulfonamide]: the EC50 at TRPML1 [1] amounted to 4.6 µM; in assay [2] (Homo sapiens) it was 15.3 µM.
Turning to `Cc1ccc(S(=O)(=O)Nc2ccccc2N2CCC(C(=O)OC(C)(C)C)CC2)cc1` [Example 90], at TRPML1 [1], the EC50 was found to be 2.5 µM. The “Qpatch Assay TRPML1 agonism Current fold increase Mean ± SEM (n)” value on TRPML1 [3] (0.3 μM compound) is given as 140 ± 44.1 (4); on TRPML1 [3] (3.0 μM compound), 83.1 ± 34.0 (2); on TRPML1 [3] (30 μM compound), 112 ± 38.1 (2).
In the case of `COc1ccc(S(=O)(=O)Nc2ccccc2N2CCC(C(=O)OC(C)(C)C)CC2)cc1` [Example 91], the EC50 at TRPML1 [1] turned out to be 3.3 µM. Further, the “Qpatch Assay TRPML1 agonism Current fold increase Mean ± SEM (n)” value is recorded as 3.1 ± 1.2 (3) at TRPML1 [3] (0.3 μM compound), 21.7 ± 7.9 (3) on TRPML1 [3] (3.0 μM compound) and 58.8 ± 16.6 (3) at TRPML1 [3] (30 μM compound).
Take `CC(C)N(C(=O)c1ccc(S(C)(=O)=O)cc1)c1ccccc1N1CCN(C(=O)OC(C)(C)C)CC1` [Example 96, tert-butyl 4-(2-(N-isopropyl-4-(methylsulfonyl)benzamrdo)phenyl)piperazine-1-carboxylate]: the EC50 at TRPML1 [1] came out at 7.3 µM; in assay [2] it was 11.2 µM.
As to `Cc1nc(S(=O)(=O)Nc2ccccc2N2CCC(Oc3ccccn3)CC2)c(C)s1` [Example 99, 2,5-dimethyl-N-(2-(4-(pyridin-2-yloxy)piperidin-1-yl)phenyl)thiazole-4-sulfonamide], the EC50 stood at 5 µM at TRPML1 [1] and 6 µM in assay [2] (Homo sapiens).
